Measured values published in patent US11440910B2, “Pesticidally active heterocyclic derivatives with sulfur containing substituents” (SYNGENTA PARTICIPATIONS AG, priority 2017, dated 2022).

Tests used:
[1] = system: Diabrotica balteata (Corn root worm); assay: Example B4: Diabrotica balteata, maize sprouts sprayed; format: in vivo; conditions: 96 h, application rate 200 ppm, L2 larvae, 4 days after infestation, read-out: effect in at least one of the two categories (mortality or growth inhibition)
Description: Example B4: Diabrotica Balteata (Corn Root Worm)
Maize sprouts placed onto an agar layer in 24-well microtiter plates were treated with aqueous test solutions prepared from 10′000 ppm DMSO stock solutions by spraying. After drying, the plates were infested with L2 larvae (6 to 10 per well). The samples were assessed for mortality and growth inhibition in comparison to untreated samples 4 days after infestation.

[2] = system: Spodoptera littoralis (Egyptian cotton leaf worm); assay: Example B1: Spodoptera littoralis, cotton leaf discs sprayed; format: in vivo; conditions: foliar, 72 h, application rate 200 ppm, L1 larvae, 3 days after infestation, read-out: control (at least one of mortality, anti-feedant effect, growth inhibition)
Description: Example B1: Spodoptera Littoralis (Egyptian Cotton Leaf Worm)
Cotton leaf discs were placed onto agar in 24-well microtiter plates and sprayed with aqueous test solutions prepared from 10′000 ppm DMSO stock solutions. After drying the leaf discs were infested with five L1 larvae. The samples were assessed for mortality, anti-feeding effect, and growth inhibition in comparison to untreated samples 3 days after infestation. Control of Spodoptera littoralis by a test sample is given when at least one of the categories mortality, anti-feedant effect, and growth inhibition is higher than the untreated sample.

[3] = system: Euschistus heros (Neotropical brown stink bug); assay: Example B8: Euschistus heros, soybean leaves sprayed; format: in vivo; conditions: 120 h, application rate 200 ppm, N2 nymphs, 5 days after infestation, read-out: effect in at least one of the two categories (mortality or growth inhibition)
Description: Example B8: Euschistus Heros (Neotropical Brown Stink Bug)
Soybean leaves on agar in 24-well microtiter plates were sprayed with aqueous test solutions prepared from 10′000 ppm DMSO stock solutions. After drying the leaves were infested with N2 nymphs. The samples were assessed for mortality and growth inhibition in comparison to untreated samples 5 days after infestation.

[4] = system: Myzus persicae (Green peach aphid); assay: Example B6: Myzus persicae, roots of pea seedlings in test solution; format: in vivo; conditions: 144 h, test rate 24 ppm, mixed ages, 6 days after placing seedlings into test solutions
Description: Example B6: Myzus Persicae (Green Peach Aphid)
Roots of pea seedlings infested with an aphid population of mixed ages were placed directly into aqueous test solutions prepared from 10′000 DMSO stock solutions. The samples were assessed for mortality 6 days after placing seedlings into test solutions.

[5] = system: Bemisia tabaci (Cotton white fly); assay: Example B7: Bemisia tabaci, cotton leaf discs sprayed; format: in vivo; conditions: foliar, 144 h, application rate 200 ppm, adult white flies, 6 days after incubation
Description: Example B7: Bemisia Tabaci (Cotton White Fly)
Cotton leaf discs were placed on agar in 24-well microtiter plates and sprayed with aqueous test solutions prepared from 10′000 ppm DMSO stock solutions. After drying the leaf discs were infested with adult white flies. The samples were checked for mortality 6 days after incubation.

[6] = system: Spodoptera littoralis (Egyptian cotton leaf worm); assay: Example B2: Spodoptera littoralis, systemic test via lettuce roots in agar; format: in vivo; conditions: 144 h, test rate 12.5 ppm, 6 days after infestation, read-out: effect in at least one of the three categories (mortality, anti-feeding, or growth inhibition)
Description: Example B2: Spodoptera Littoralis (Egyptian Cotton Leaf Worm)
Test compounds were applied by pipette from 10′000 ppm DMSO stock solutions into 24-well plates and mixed with agar. Lettuce seeds were placed onto the agar and the multi well plate was closed by another plate which contained also agar. After 7 days the compound was absorbed by the roots and the lettuce grew into the lid plate. The lettuce leaves were then cut off into the lid plate. Spodoptera eggs were pipetted through a plastic stencil onto a humid gel blotting paper and the lid plate was closed with it. The samples were assessed for mortality, anti-feedant effect and growth inhibition in comparison to untreated samples 6 days after infestation.

[7] = system: Plutella xylostella (Diamond back moth); assay: Example B3: Plutella xylostella, artificial diet; format: in vivo; conditions: 120 h, application rate 200 ppm, L2 larvae, 5 days after infestation, read-out: effect in at least one of the two categories (mortality or growth inhibition)
Description: Example B3: Plutella Xylostella (Diamond Back Moth)
24-well microtiter plates with artificial diet were treated with aqueous test solutions prepared from 10′000 ppm DMSO stock solutions by pipetting. After drying, the plates were infested with L2 larvae (10 to 15 per well). The samples were assessed for mortality and growth inhibition in comparison to untreated samples 5 days after infestation.

[8] = system: Myzus persicae (Green peach aphid); assay: Example B5: Myzus persicae, sunflower leaf discs sprayed; format: in vivo; conditions: foliar, 144 h, application rate 200 ppm, mixed ages, 6 days after infestation
Description: Example B5: Myzus Persicae (Green Peach Aphid)
Sunflower leaf discs were placed onto agar in a 24-well microtiter plate and sprayed with aqueous test solutions prepared from 10′000 ppm DMSO stock solutions. After drying, the leaf discs were infested with an aphid population of mixed ages. The samples were assessed for mortality 6 days after infestation.

Row | SMILES | percent effect (mortality or growth inhibition) at 200 ppm [1] [%] | percent effect (mortality or growth inhibition) at 200 ppm [3] [%] | mortality at 24 ppm [4] [%] | percent effect (mortality or growth inhibition) at 200 ppm [7] [%] | mortality at 200 ppm [8] [%] | further results
1 | CCS(=O)(=O)c1cc(C(C)(C#N)C#N)cnc1-c1nc2cc(C(F)(F)F)ncc2n1C [Compound P1, 2-[5-ethylsulfonyl-6-[3-methyl-6-(trifluoromethyl)imidazo[4,5-c]pyridin-2-yl]-3-pyridyl]-2-methyl-propanedinitrile] |  |  |  |  |  | melting point: 222 to 223 °C
2 | CCS(=O)(=O)c1cc(C(C)(C)C#N)cnc1-c1nc2cc(C(F)(F)F)nnc2n1C [Compound P2, 2-[5-ethylsulfonyl-6-[7-methyl-3-(trifluoromethyl)imidazo[4,5-c]pyridazin-6-yl]-3-pyridyl]-2-methyl-propanenitrile] | ≥ 80 | ≥ 80 | ≥ 80 | ≥ 80 | ≥ 80 | percent control (mortality, anti-feedant effect or growth inhibition) at 200 ppm [2]: ≥ 80%; mortality at 200 ppm [5]: ≥ 80%; percent effect (mortality, anti-feeding or growth inhibition) at 12.5 ppm [6]: ≥ 80%
3 | CCC(C#N)(CC)c1cnc(-c2nc3cc(C(F)(F)F)ncc3n2C)c(S(=O)(=O)CC)c1 [Compound P3, 2-ethyl-2-[5-ethylsulfonyl-6-[3-methyl-6-(trifluoromethyl)imidazo[4,5-c]pyridin-2-yl]-3-pyridyl]butanenitrile] | ≥ 80 |  |  | ≥ 80 |  | 
4 | CCC(C#N)c1cnc(-c2nc3cc(C(F)(F)F)ncc3n2C)c(S(=O)(=O)CC)c1 (centres unmarked) [Compound P4, 2-[5-ethylsulfonyl-6-[3-methyl-6-(trifluoromethyl)imidazo[4,5-c]pyridin-2-yl]-3-pyridyl]butanenitrile] | ≥ 80 |  |  | ≥ 80 | ≥ 80 | 
5 | CCS(=O)(=O)c1cc(C(C)(C)C#N)cnc1-c1nc2cc(C(F)(F)F)ncc2n1C [Compound P5, 2-[5-ethylsulfonyl-6-[3-methyl-6-(trifluoromethyl)imidazo[4,5-c]pyridin-2-yl]-3-pyridyl]-2-methyl-propanenitrile] | ≥ 80 | ≥ 80 | ≥ 80 | ≥ 80 | ≥ 80 | percent control (mortality, anti-feedant effect or growth inhibition) at 200 ppm [2]: ≥ 80%; mortality at 200 ppm [5]: ≥ 80%
6 | CCS(=O)(=O)c1cc(C(C)C#N)cnc1-c1nc2cc(C(F)(F)F)ncc2n1C (centres unmarked) [Compound P6, 2-[5-ethylsulfonyl-6-[3-methyl-6-(trifluoromethyl)imidazo[4,5-c]pyridin-2-yl]-3-pyridyl]propanenitrile] | ≥ 80 | ≥ 80 | ≥ 80 |  |  | 
7 | CCOC(=O)C(C)(C#N)c1cnc(-c2nc3cc(C(F)(F)F)ncc3n2C)c(S(=O)(=O)CC)c1 (centres unmarked) [Compound P9, ethyl 2-cyano-2-[5-ethylsulfonyl-6-[3-methyl-6-(trifluoromethyl)imidazo[4,5-c]pyridin-2-yl]-3-pyridyl]propanoate] |  | ≥ 80 |  | ≥ 80 |  | 
8 | CCS(=O)(=O)c1cc(C(C#N)C(C)C)cnc1-c1nc2cc(C(F)(F)F)ncc2n1C (centres unmarked) [Compound P10, 2-[5-ethylsulfonyl-6-[3-methyl-6-(trifluoromethyl)imidazo[4,5-c]pyridin-2-yl]-3-pyridyl]-3-methyl-butanenitrile] | ≥ 80 |  | ≥ 80 | ≥ 80 | ≥ 80 | 
9 | CCSc1cc(C(C)(C)C#N)ccc1-c1nc2cc(C(F)(F)F)nnc2n1C [Compound P11, 2-[3-ethylsulfanyl-4-[7-methyl-3-(trifluoromethyl)imidazo[4,5-c]pyridazin-6-yl]phenyl]-2-methyl-propanenitrile] | ≥ 80 | ≥ 80 |  |  |  | mortality at 200 ppm [5]: ≥ 80%
10 | CCS(=O)(=O)c1cc(C(C)(C)C#N)ccc1-c1nc2cc(C(F)(F)F)nnc2n1C [Compound P12, 2-[3-ethylsulfonyl-4-[7-methyl-3-(trifluoromethyl)imidazo[4,5-c]pyridazin-6-yl]phenyl]-2-methyl-propanenitrile] | ≥ 80 | ≥ 80 | ≥ 80 | ≥ 80 | ≥ 80 | mortality at 200 ppm [5]: ≥ 80%
11 | CCSc1cc(C(C)C#N)ccc1-c1nc2cc(C(F)(F)F)nnc2n1C (centres unmarked) [Compound P13, 2-[3-ethylsulfanyl-4-[7-methyl-3-(trifluoromethyl)imidazo[4,5-c]pyridazin-6-yl]phenyl]propanenitrile] |  | ≥ 80 |  |  |  | 
12 | CCS(=O)(=O)c1cc(C(F)(F)C#N)cnc1-c1nc2cc(C(F)(F)F)ncc2n1C [Compound P15, 2-[5-ethylsulfonyl-6-[3-methyl-6-(trifluoromethyl)imidazo[4,5-c]pyridin-2-yl]-3-pyridyl]-2,2-difluoro-acetonitrile] | ≥ 80 | ≥ 80 | ≥ 80 |  | ≥ 80 | 
13 | CCSc1cc(C(C)(C)C#N)ccc1-c1nc2cc(C(F)(F)F)ncc2n1C [Compound P16, 2-[3-ethylsulfanyl-4-[3-methyl-6-(trifluoromethyl)imidazo[4,5-c]pyridin-2-yl]phenyl]-2-methyl-propanenitrile] | ≥ 80 | ≥ 80 |  |  |  | 
14 | CCS(=O)(=O)c1cc(C(C)(F)C#N)cnc1-c1nc2cc(C(F)(F)F)ncc2n1C (centres unmarked) [Compound P18, 2-[5-ethylsulfonyl-6-[3-methyl-6-(trifluoromethyl)imidazo[4,5-c]pyridin-2-yl]-3-pyridyl]-2-fluoro-propanenitrile] |  |  |  |  |  | melting point: 202 to 204 °C
15 | CCS(=O)(=O)c1cc(C(C)(C)C#N)cnc1-c1nc2cc(Br)ncc2n1C [Compound P19, 2-[6-(6-bromo-3-methyl-imidazo[4,5-c]pyridin-2-yl)-5-ethylsulfonyl-3-pyridyl]-2-methyl-propanenitrile] |  | ≥ 80 | ≥ 80 |  |  | 
16 | CCS(=O)(=O)c1cc(C(C)(C)C#N)cnc1-c1nc2cc(C(F)(F)C(F)(F)F)ncc2n1C [Compound P20, 2-[5-ethylsulfonyl-6-[3-methyl-6-(1,1,2,2,2-pentafluoroethyl)imidazo[4,5-c]pyridin-2-yl]-3-pyridyl]-2-methyl-propanenitrile] |  |  |  |  |  | melting point: 212 to 213 °C
